Laboratory results from ChEMBL document CHEMBL1201862, “PubChem BioAssay data set” (2004).
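Cells were grown in 96-well plates and exposed to each compound for 48 hours at five concentrations; endpoints were interpolated linearly between bracketing concentrations, or set to the highest concentration if not reached. GI50 marks 50% less growth.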 The source made the active and inactive calls. Cut-off read from the data, not from the text of the source: active = GI50 up to about 1.1 µM and inactive = higher.

Columns and labels:
Experiment in all cases: DTP human tumour cell line panel, 48 h
ACHN = tested on: ACHN
HCC 2998 = tested on: HCC 2998
HCT-15 = tested on: HCT-15
HL-60 = tested on: HL-60
K562 = tested on: K562
LXFL 529 = tested on: LXFL 529
M14 = tested on: M14
MOLT-4 = tested on: MOLT-4
NCI-H23 = tested on: NCI-H23
OVCAR-3 = tested on: OVCAR-3
RPMI-8226 = tested on: RPMI-8226
SF-539 = tested on: SF-539
SK-MEL-28 = tested on: SK-MEL-28
SK-MEL-5 = tested on: SK-MEL-5
SN12C = tested on: SN12C
SR = tested on: SR
SW-620 = tested on: SW-620
UACC-257 = tested on: UACC-257
OVCAR-4 = tested on: OVCAR-4
A498 = tested on: A498

Row | SMILES | GI50 (ACHN) | GI50 (HCC 2998) | GI50 (HCT-15) [µM] | GI50 (HL-60) | GI50 (K562) | GI50 (LXFL 529) | GI50 (M14) | GI50 (MOLT-4) | GI50 (NCI-H23) | GI50 (OVCAR-3) | GI50 (RPMI-8226) | GI50 (SF-539) | GI50 (SK-MEL-28) | GI50 (SK-MEL-5) | GI50 (SN12C) | GI50 (SR) | GI50 (SW-620) | GI50 (UACC-257) | GI50 (OVCAR-4) | GI50 (A498)
1 | COc1cc2c(cc1OC)C(=O)N1CCCC1C(=O)S2 (stereo unspecified) | > 100 µM (inactive) | > 100 µM (inactive) | > 100 | > 100 µM (inactive) | > 100 µM (inactive) | > 100 µM (inactive) | > 100 µM (inactive) | > 100 µM (inactive) | > 100 µM (inactive) | > 100 µM (inactive) | > 100 µM (inactive) | > 100 µM (inactive) | > 100 µM (inactive) | > 100 µM (inactive) | > 100 µM (inactive) | > 100 µM (inactive) | > 100 µM (inactive) | > 100 µM (inactive) | – | –
2 | CCC(CC)n1c(C)nc2c1C(=O)c1ccccc1C2=O | 41.4 µM (inactive) | 77.4 µM (inactive) | 9.18 | 10.7 µM (inactive) | 21.1 µM (inactive) | 19.5 µM (inactive) | 63.1 µM (inactive) | 41.2 µM (inactive) | 21.5 µM (inactive) | 26 µM (inactive) | – | 34 µM (inactive) | 49.3 µM (inactive) | 15.7 µM (inactive) | 46.3 µM (inactive) | 25.8 µM (inactive) | 52.2 µM (inactive) | 24 µM (inactive) | 40.7 µM (inactive) | –
3 | COc1ccc([C@H]2CC(=O)NCCCCN2)cc1 | > 100 µM (inactive) | – | > 100 | – | > 100 µM (inactive) | > 100 µM (inactive) | > 100 µM (inactive) | > 100 µM (inactive) | > 100 µM (inactive) | – | > 100 µM (inactive) | > 100 µM (inactive) | > 100 µM (inactive) | > 100 µM (inactive) | > 100 µM (inactive) | > 100 µM (inactive) | – | > 100 µM (inactive) | > 100 µM (inactive) | > 100 µM (inactive)
4 | O=C1CCC(=O)c2c1c(O)c1ccncc1c2O | 15.3 µM (inactive) | 15.4 µM (inactive) | 12.9 | 7.94 µM (inactive) | 18.8 µM (inactive) | 16.6 µM (inactive) | 15.6 µM (inactive) | 18.2 µM (inactive) | 16.4 µM (inactive) | 2.88 µM (inactive) | 17.5 µM (inactive) | 15.6 µM (inactive) | 20.5 µM (inactive) | 11.4 µM (inactive) | 17.5 µM (inactive) | 13 µM (inactive) | 16.4 µM (inactive) | 7.5 µM (inactive) | 12.9 µM (inactive) | –
5 | Cc1ccc(/N=N/c2ccc(N(CCC#N)CCC#N)cc2C)c(Br)c1 | 15 µM (inactive) | 5.28 µM (inactive) | 2.78 | 5.42 µM (inactive) | 3.13 µM (inactive) | 20 µM (inactive) | 20.5 µM (inactive) | 7.5 µM (inactive) | 21.3 µM (inactive) | 32.6 µM (inactive) | 4.33 µM (inactive) | 14.4 µM (inactive) | 51.3 µM (inactive) | 16.3 µM (inactive) | 19.4 µM (inactive) | – | 21.9 µM (inactive) | 26 µM (inactive) | 20.4 µM (inactive) | 51.9 µM (inactive)
6 | O=C1OC(=O)c2c1c(-c1ccccc1)cn2-c1ccc(Cl)cc1 | 37.2 µM (inactive) | > 100 µM (inactive) | 45.3 | 1.15 µM (inactive) | 2.22 µM (inactive) | 5.94 µM (inactive) | 8.28 µM (inactive) | 15 µM (inactive) | > 100 µM (inactive) | 54.7 µM (inactive) | 26.8 µM (inactive) | > 100 µM (inactive) | > 100 µM (inactive) | 3.38 µM (inactive) | > 100 µM (inactive) | > 100 µM (inactive) | > 100 µM (inactive) | > 100 µM (inactive) | – | –
7 | N/N=C(\Cc1ccccc1)NN=C(N)N | 53.7 µM (inactive) | > 100 µM (inactive) | 74.8 | > 100 µM (inactive) | > 100 µM (inactive) | > 100 µM (inactive) | > 100 µM (inactive) | 47.1 µM (inactive) | > 100 µM (inactive) | – | > 100 µM (inactive) | > 100 µM (inactive) | > 100 µM (inactive) | > 100 µM (inactive) | > 100 µM (inactive) | > 100 µM (inactive) | > 100 µM (inactive) | > 100 µM (inactive) | > 100 µM (inactive) | > 100 µM (inactive)
8 | O=C(c1nc2ccc([N+](=O)[O-])cc2nc1O)C(O)c1ccc2c(c1)OCO2 (stereo unspecified) | > 100 µM (inactive) | > 100 µM (inactive) | > 62.2 | > 39.1 µM (inactive) | > 78.9 µM (inactive) | 71.8 µM (inactive) | > 94 µM (inactive) | > 100 µM (inactive) | > 100 µM (inactive) | > 50.7 µM (inactive) | 55.5 µM (inactive) | > 100 µM (inactive) | > 100 µM (inactive) | 45.7 µM (inactive) | > 100 µM (inactive) | > 100 µM (inactive) | > 100 µM (inactive) | > 100 µM (inactive) | > 100 µM (inactive) | > 100 µM (inactive)
9 | COc1nc(NC2OC(COC(C)=O)C(OC(C)=O)C(OC(C)=O)C2OC(C)=O)c(-c2csc(N)n2)c(=O)n1C (stereo unspecified) | 38.4 µM (inactive) | – | > 100 | – | 60.1 µM (inactive) | 70 µM (inactive) | 78.7 µM (inactive) | > 100 µM (inactive) | 66.1 µM (inactive) | 93.3 µM (inactive) | > 100 µM (inactive) | 54.2 µM (inactive) | 55.7 µM (inactive) | 43.3 µM (inactive) | > 100 µM (inactive) | > 100 µM (inactive) | > 100 µM (inactive) | 58.3 µM (inactive) | 19.4 µM (inactive) | > 100 µM (inactive)
10 | N#C/C(=C\c1ccc2ccccc2c1)c1ccccc1 | 18.7 µM (inactive) | 21.7 µM (inactive) | 23.6 | – | – | 29.4 µM (inactive) | 19.5 µM (inactive) | 39.5 µM (inactive) | > 100 µM (inactive) | 13 µM (inactive) | 53.1 µM (inactive) | 17.3 µM (inactive) | 45.4 µM (inactive) | 16.7 µM (inactive) | 39.8 µM (inactive) | 46.8 µM (inactive) | 28.8 µM (inactive) | 25.5 µM (inactive) | 29.6 µM (inactive) | 23.6 µM (inactive)
11 | COC(=O)C1=NC(=S)NC(c2ccccc2)C1c1nc2ccccc2o1 (stereo unspecified) | > 50 µM (inactive) | > 50 µM (inactive) | > 50 | > 50 µM (inactive) | > 50 µM (inactive) | > 50 µM (inactive) | > 50 µM (inactive) | > 50 µM (inactive) | > 50 µM (inactive) | > 50 µM (inactive) | > 50 µM (inactive) | > 50 µM (inactive) | – | – | > 50 µM (inactive) | > 50 µM (inactive) | > 50 µM (inactive) | > 50 µM (inactive) | > 50 µM (inactive) | > 50 µM (inactive)
12 | CN(C(=O)C12C3C4C1C1C2C3C41C(N)=O)C(C)(C)C (stereo unspecified) | > 100 µM (inactive) | > 100 µM (inactive) | – | > 100 µM (inactive) | > 100 µM (inactive) | > 100 µM (inactive) | > 100 µM (inactive) | > 100 µM (inactive) | > 100 µM (inactive) | > 100 µM (inactive) | – | > 100 µM (inactive) | > 100 µM (inactive) | > 100 µM (inactive) | > 100 µM (inactive) | > 100 µM (inactive) | > 100 µM (inactive) | – | > 100 µM (inactive) | > 100 µM (inactive)
13 | O=C(/C=C/c1ccc(Cl)c(Cl)c1)c1cccc2ccccc12 | 16.4 µM (inactive) | 10.4 µM (inactive) | 2.54 | 2.07 µM (inactive) | 3.17 µM (inactive) | 2.28 µM (inactive) | 17.1 µM (inactive) | – | 8.17 µM (inactive) | 6.32 µM (inactive) | 2.29 µM (inactive) | 2.96 µM (inactive) | 17.8 µM (inactive) | 19.1 µM (inactive) | 16.9 µM (inactive) | – | 1.71 µM (inactive) | 15.9 µM (inactive) | 7.64 µM (inactive) | 22.5 µM (inactive)
14 | CC(=O)OCC1=CC2CCC3C(C)(CCC[C@]3(C)COC(C)=O)C23CC[C@H]1C3 (stereo partly specified) | 73.1 µM (inactive) | 22.3 µM (inactive) | > 100 | 26 µM (inactive) | 27.2 µM (inactive) | 29.2 µM (inactive) | 36 µM (inactive) | 20.1 µM (inactive) | 33.9 µM (inactive) | 31.9 µM (inactive) | 21.6 µM (inactive) | 40.3 µM (inactive) | > 100 µM (inactive) | 25.5 µM (inactive) | 45.2 µM (inactive) | 27.5 µM (inactive) | 56.6 µM (inactive) | 37.7 µM (inactive) | 30.1 µM (inactive) | > 100 µM (inactive)
15 | C=COC(=O)N[C@H]1CCc2cc(OC)c(OC)c(OC)c2-c2ccc(SC)c(=O)cc21 | < 0.01 µM (active) | < 0.01 µM (active) | < 0.01 | < 0.01 µM (active) | < 0.01 µM (active) | < 0.01 µM (active) | < 0.01 µM (active) | < 0.01 µM (active) | < 0.01 µM (active) | < 0.01 µM (active) | < 0.01 µM (active) | < 0.01 µM (active) | 1.36 µM (inactive) | < 0.01 µM (active) | < 0.01 µM (active) | < 0.01 µM (active) | < 0.0286 µM (active) | 0.116 µM (active) | 4.97 µM (inactive) | < 0.01 µM (active)
